We go through 1 compound from patent publication US20070142317A1, “Topical composition for treatment of skin disorders” (QLT USA, Inc., priority 2003, published 2007).

The structures appear in SMILES notation.

In one assay the test system is U937 monocytoid cells. Nature of the assay: TUNEL assay, simultaneous exposure to dCF and dAd (Example 22). It counts as cell-based. The procedure:
Methods Simultaneous Exposure—U937 monocytoid cells were cultured in the presence of 0, 1, 2.5, 10, 20, 50, 100, 150, 200, and 250 μM dAdo for 2 days. […] At the end of the treatment period, the cells were harvested for analysis by a TUNEL assay, a flow-cytometry-based method to quantify the percentage of cells that have undergone apoptosis. The level of apoptosis is expressed as “% FITC shift”. As a positive control, the cells were exposed to 5 mM camptothecin for 2 days.

The subject of assay [1] is monocytes and lymphocytes. Nature of the assay: Toxicity of dAdo to monocytes and lymphocytes. Type of assay: cell-based.
[2] abbreviates: dAd 10 μM alone (dCF 0), 2 days.
Where [3] appears, read: dAd 20 μM alone (dCF 0), 2 days.
[4] abbreviates: dAd 50 μM alone (dCF 0), 2 days.
[5] abbreviates: dAd 100 μM alone (dCF 0), 2 days.
The mark [6] stands for this setting: dAd 150 μM alone (dCF 0), 2 days.
[7] abbreviates: dAd 200 μM alone (dCF 0), 2 days.
The mark [8] stands for this setting: dAd 250 μM alone (dCF 0), 2 days.

Regarding `Nc1ncnc2c1ncn2[C@H]1C[C@H](O)[C@@H](CO)O1` [dAd, 2′-deoxyadenosine], the “concentration at which dAd itself induces apoptosis” value with U937 monocytoid cells (U937 cells, no dCF) is 100 to 200 µM. Further, in the assay with U937 monocytoid cells (absence of dCF, 2 days), the “concentrations at which dAd alone is toxic” value is over 100 µM. In addition, the “% FITC Shift” value with U937 monocytoid cells (dAd 1 μM alone (dCF 0), 2 days) is listed as 1.2%; in the assay with U937 monocytoid cells (setting [2]) it was 1.8%; with U937 monocytoid cells (setting [3]), 1.7%; in the assay on U937 monocytoid cells (setting [4]), 1.5%; in the assay with U937 monocytoid cells (setting [5]), 33.7%; in the assay on U937 monocytoid cells (setting [6]) it was 78.3%. The “% FITC Shift” value with U937 monocytoid cells (setting [7]) was found to be 62.6%; in the assay with U937 monocytoid cells (setting [8]), 66.4%. Further, the “% PI Shift” value in the assay on U937 monocytoid cells (dAd 1 μM alone (dCF 0), 2 days) turned out to be 1.1%; in the assay with U937 monocytoid cells (setting [2]), 1.5%; with U937 monocytoid cells (setting [3]), 1.8%; in the assay on U937 monocytoid cells (setting [4]), 3.8%; with U937 monocytoid cells (setting [5]), 15.9%; in the assay on U937 monocytoid cells (setting [6]), 17.3%. Moreover, the entries for the “% PI Shift” value in the assay with U937 monocytoid cells (setting [7]) and in the assay with U937 monocytoid cells (setting [8]) were 19.7% and 17.8%, respectively. Further, the “concentrations toxic to monocytes and lymphocytes” value in assay [1] is given as “greater than 100 μM”.
